Assay results from patent US20060211736A1, “GLUTARIMIDE-CONTAINING POLYKETIDE ANALOGS AND METHODS THEREOF” (Wisconsin Alumni Research Foundation, priority 2005, published 2006).
Each block holds one molecule with its values, some of them ahead of it.

Tests used:
[1] = stability in organic solvents and under fermentation condition (HPLC, 1H NMR); assay type: physicochemical; conditions: in CHCl3, DMSO, MeOH, and MeOH-H2O at 25° C. for 90 days
Procedure: (§1) To verify the identity of the shunt metabolites, purified 4 (30 mg) was incubated in H2O-DMSO (9:1), and the resultant products were isolated and subjected to spectroscopic analysis.
Seed medium (50 mL) in a 250-mL flask was inoculated with spores of S. platensis and incubated on a rotary shaker at 250 rpm and 28° C. for 30 hr. The resultant seed culture (25 mL) was then inoculated into production medium (600 mL containing 70 g/L XAD-16 resins) in a 2-L flask, which was incubated on a rotary shaker at 250 rpm and 28° C. for 2 days. The combined production culture broth (7 L) was filtered through gauze sponges to capture the XAD-16 resins. The resins were washed with Milli-Q H2O, dried at room temperature, and eluted with anhydrous ethanol. The ethanol extract was evaporated under reduced pressure to yield an oily residue. The residue was first analyzed by HPLC-UV (PDA) and LC-ESI-MS to confirm the presence of the various congeners of 110. Although they can survive during fermentation and be stabilized in H2O upon absorption to resins, 110 and its congeners 112-119 undergo rapid rearrangement in aqueous solution. They are stable in most organic solvents such as CHCl3, EtOAc, hexane, and absolute ethanol at room temperature. Consequently, isolation of these metabolites was performed mainly by repeated silica gel flash column chromatography using two different solvent systems (CHCl3/MeOH and EtOAc/hexane).

[2] = tested on: K-ras transformed NIH/3T3 mouse fibroblasts; conditions: 0.4 ∝g/ml; cited from earlier work
[3] = stability in water / H2O-mediated rearrangement (HPLC); assay type: physicochemical
Procedure: as §1
Large-scale Conversion of 4 to 1, 2, 3 and 5 in H2O. The purity of compound 4 was first analyzed by HPLC showing a single peak (purity >98%) and then confirmed by ^1H NMR spectrum (in CDCl3) showing no detectable contaminant. A solution of 4 (30 mg in 6 ml of DMSO) was then added to 55 ml Milli-Q H2O, and the resultant mixture was incubated at 37° C. for 2 hours. The reaction mixture was evaporated under high vacuo. The residue was subjected to silica gel flash column chromatography eluted with CHCl3-MeOH (from 10:0 to 9.4:0.6) to yield pure 1 (8 mg), 3 (9 mg), and a mixture of 2 and 5. The latter was further resolved by semi-preparative to afford pure 2 (6 mg) and 5 (4 mg). The ESI−MS, ^1H NMR and optical rotation data of compounds 1, 2, 3, and 5 were identical to those obtained from the corresponding compounds isolated from fermentation (the ^13C NMR spectrum of 1 was also measured, which is identical to that of 1 obtained from fermentation).
H2O-mediated rearrangement of 112-114 and 117-119. […]
Regioselective 1,4-reduction to access the reduced NK30424 scaffold. […] The reactions for 203, 209, and 210 were complete in 2, 8, and 12 hrs, respectively, as monitored by HPLC (yields>80%). […]

[4] = tested on: HCT-116 cells; conditions: same assay conditions for both substances; cited from earlier work
[5] = tested on: experimental tumors; conditions: efficacy comparable to or better than MTM C; cited from earlier work

Compound: CO[C@H]1/C=C/CC/C=C/C(=O)O[C@H]([C@H](C)C(=O)CCCC2CC(=O)NC(=O)C2)/C(C)=C\[C@@H](C)[C@@H]1O [Compound 1, Migrastatin]
change of solutions upon HPLC and 1H NMR analyses [1]: no detectable change

Compound: CO[C@@H](/C=C/CC/C=C/C(=O)O)[C@@H](O)[C@H](C)/C=C(\C)[C@H](O)[C@H](C)C(=O)CCCC1CC(=O)NC(=O)C1 [Compound 2, Dorrigocin A]
reduction of the number of foci [2]: 74%
change of solutions upon HPLC and 1H NMR analyses [1]: no detectable change

Compound: CO[C@@H](/C=C/CC/C=C/C(=O)O)[C@@H](O)[C@H](C)[C@@H](O)/C(C)=C/[C@H](C)C(=O)CCCC1CC(=O)NC(=O)C1 [Compound 3, Dorrigocin B]
change of solutions upon HPLC and 1H NMR analyses [1]: no detectable change

stability in aqueous solution (H2O-mediated rearrangement) [3]: rapid conversion
Compound: CO[C@H]1/C=C/CC/C=C/C(=O)O[C@@H](/C(C)=C/[C@H](C)C(=O)CCCC2CC(=O)NC(=O)C2)[C@@H](C)[C@@H]1O [Compound 4, iso-Migrastatin]

Compound: CO[C@@H](/C=C/CC/C=C/C(=O)O)[C@@H](O)[C@H](C)/C=C(\C)[C@@H](O)[C@H](C)C(=O)CCCC1CC(=O)NC(=O)C1 [Compound 5, 13-epi-Dorrigocin A]
change of solutions upon HPLC and 1H NMR analyses [1]: no detectable change

Compound: C/C(=C\[C@H](C)C(=O)C[C@H](O)CC1CC(=O)NC(=O)C1)[C@@H]1OC(=O)/C=C/CC/C=C/C=C\[C@@H]1C [Compound 104, lactimidomycin]
IC50 value with HCT-116 cells [4]: 0.0014 µg/mL
survival time of tumor-bearing mice [5]: prolonged the survival time

Compound: CO[C@@]12[C@H](COC(N)=O)C3=C(C(=O)C(C)=C(N)C3=O)N1C[C@@H]1N[C@@H]12 [MTM C]
IC50 value with HCT-116 cells [4]: 0.8 µg/mL
